Experimental data as given in patent publication US12715846B2, “Crystal form of quinolinone compound and use thereof” (SUNSHINE LAKE PHARMA CO., LTD., priority 2019, dated 2026).

Tests used:
[1] = Crystal form stability on standing under normal temperature and pressure; assay type: physicochemical; conditions: normal temperature and pressure conditions
[2] = Hygroscopicity experiment (dynamic moisture adsorption, DVS); assay type: physicochemical
Description: The hygroscopicity of the present invention was measured by a DVS INT-Std dynamic moisture and gas adsorption analyzer from Surface Measurement Systems, UK. The humidity test range was 0%-95%, the airflow rate was 200 mL/min, and the temperature was 25° C. One test point was taken for every 5% increase in humidity.
An appropriate amount of the test sample was taken, the hygroscopicity was tested by dynamic moisture adsorption device.

[3] = Stability: high-temperature experiment; assay type: physicochemical; conditions: for Purity: HPLC
Description: (1) High-temperature experiment: appropriate amount of the test sample was added into a flat weighing bottle, divided into ≤5 mm thick thin layer. The bottle was placed at 60° C.±2° C. for 30 days. Samples were taken on the 6th, 10th, and 30th day, and tested according to the key stability inspection items: the color of the samples were observed, the purities of the samples were determined by HPLC.

[4] = Stability: illumination experiment; assay type: physicochemical; conditions: for Appearance / Purity: Illumination; for Purity: HPLC
Description: (3) Illumination experiment: a batch of the test sample was added into a flat weighing bottle, divided into ≤5mm thick thin layer. The bottle was opened and placed in a light box (with UV lamp) under the condition of illuminance of 4500±500 lx and ultraviolet light ≥0.7w/m^2 for 30 days. Samples were taken on the 6th, 13th, and 30th day, the purities of the samples were determined by HPLC.

Solubility experiment = assay type: physicochemical; conditions: comparison in words, values not given
Description: The solubility of the present invention was determined using an Agilent 1200 High Performance Liquid Chromatograph DAD/VWD detector with an Agilent XDB-C18 model (4.6×50 mm, 5 μm). The detection wavelength was 266 nm, the flow rate was 1.0 mL/min, and the column temperature was 35° C. The mobile phase A was acetonitrile−0.01 M ammonium acetate=10:90 (V:V), and the analysis method was acetonitrile−mobile phase A=70:30 (V:V). The running time was 10 minutes.

[5] = Stability: high-humidity experiment; assay type: physicochemical; conditions: for Appearance / Purity: High humidity (RH92.5%); for Purity: HPLC
Description: (2) High-humidity experiment: a batch of the test sample was added into a flat weighing bottle, divided into ≤5 mm thick thin layer. The bottle was placed at 25° C. and RH for 90%±5% for 30 days. Samples were taken on the 6th, 10th, and 30th day, and tested according to the key stability inspection items: the color of the samples were observed, the purities of the samples were determined by HPLC.

[6] = Stability: accelerated experiment; assay type: physicochemical; conditions: for Appearance / Purity / Moisture content: 40 ± 2° C./75% ± 5% RH; for Purity: HPLC; for Moisture content: by TGA
Description: (4) Accelerated experiment: appropriate amount of the test sample was packed with a single-layer PE and aluminum foil, the sample was placed at 40±2° C./75%±5% RH for 6 months. Samples were taken on the 1st, 2nd, 3rd and 6th month. The color of the samples were observed, the purities of the samples were determined by HPLC, and the moisture content was determined by TGA.

[7] = Pharmacokinetic experiment of the crystal form in Beagle dogs; assay type: in vivo
Description: The crystal form of the compound of formula (I) of the present invention is filled into capsules for oral administration.
8-12 kg male Beagle dogs were taken, and 3 as a group. Capsules containing the test sample were orally administered at a dose of 10 mg/kg and the bloods were collected at time points of 0.25, 0.5, 1.0, 2.0, 4.0, 6.0, 8.0 and 24 h. Standard curve was plotted based on concentrations of the samples in a suitable range, the concentration of the test sample in the plasma sample was measured and quantified by AB SCIEX API4000 LC-MS/MS at MRM mode. Pharmacokinetic parameters were calculated according to drug concentration-time curve using a noncompartmental method by WinNonLin 6.3 software.

[8] = 0 day (start, common to all conditions of Table 2)
[9] = High temperature (60° C.), 6th day
[10] = High temperature (60° C.), 10th day
[11] = High temperature (60° C.), 30th day
[12] = dog, plasma, po, male Beagle dogs, capsules orally, 10 mg/kg

## Cn1c(=O)c(C(=O)NCC(=O)O)c(O)c2ccc(Oc3ccccc3)cc21 [Example 1, 2-(4-hydroxy-1-methyl-2-oxo-7-phenoxy-1,2-dihydroquinoline-3-carboxamido)acetic acid]
[1]; listed as crystal form I
  crystal transformation on standing: does not undergo crystal transformation
[2]; Chinese Pharmacopoeia 2015 General Principle 9103 classes (Table 5)
  hygroscopicity feature: lightly hygroscopic
[2]; DVS, 25° C., 60% relative humidity
  Weight gain at 60% relative humidity: 0.27%
[2]; DVS, 25° C., 80% relative humidity
  Weight gain at 80% relative humidity: 0.38%
[2]; DVS, 25° C., 95% relative humidity
  Weight gain at 95% relative humidity: 0.57%
[3]; [8]
  Appearance: off-white
  Purity: 99.76%
[3]; [9]
  Appearance: off-white
  Purity: 99.77%
[3]; [10]
  Appearance: off-white
  Purity: 99.78%
[3]; [11]
  Appearance: off-white
  Purity: 99.77%
[3]; high temperature (60° C.), 30 days
  change of appearance and purity: no obvious changes
[4]; 6th day
  Appearance: off-white
  Purity: 99.77%
[4]; 13th day
  Appearance: off-white
  Purity: 99.77%
[4]; 30th day
  Appearance: off-white
  Purity: 99.72%
[4]; lighting conditions, 30 days
  change of appearance and purity: no obvious changes
Solubility experiment
  solubility compared with crystal form II: better solubility
[5]; 6th day
  Appearance: off-white
  Purity: 99.78%
[5]; 10th day
  Appearance: off-white
  Purity: 99.77%
[5]; 30th day
  Appearance: off-white
  Purity: 99.76%
[5]; high humidity (25° C., RH 90%±5%), 30 days
  change of appearance and purity: no obvious changes
[6]; 0 month
  Appearance: off-white
  Purity: 99.78%
  Moisture content: 0.04%
[6]; 1st month
  Appearance: off-white
  Purity: 99.77%
  Moisture content: 0.06%
[6]; 2nd month
  Appearance: off-white
  Purity: 99.78%
  Moisture content: 0.07%
[6]; 3rd month
  Appearance: off-white
  Purity: 99.78%
  Moisture content: 0.08%
[6]; 6th month
  Appearance: off-white
  Purity: 99.78%
  Moisture content: 0.12%
[6]; accelerated experimental conditions (40±2° C./75%±5% RH, 6 months)
  change of appearance, purity and moisture content: no obvious changes
[7]; beagle dogs, oral capsules 10 mg/kg, conclusion from Table 1
  exposure in beagle dogs: larger exposure
[7]; [12]
  AUC(0-t): 9300 ng·h/mL
  Cmax: 2810 ng/mL
  Tmax: 1.17 h

## Cn1c(=O)c(C(=O)NCC(=O)O)c(O)c2ccc(Oc3ccccc3)cc21 [crystal form II, 2-(4-hydroxy-1-methyl-2-oxo-7-phenoxy-1,2-dihydroquinoline-3-carboxamido)acetic acid]
[1]
  crystal transformation on standing: easy to undergo crystal transformation
